The numbers were not newly measured in patent publication US8444622B2, “Device, system, and method for targeted delivery of anti-inflammatory medicaments to a mammalian subject” (The Invention Science Fund I, LLC, priority 2009, dated 2013), which cites them from elsewhere.

In the case of `COc1ccc2cc([C@H](C)C(=O)O)ccc2c1` [naproxen], the “elimination from synovial fluid” value (appreciable drug concentrations may still be measurable after 24 hours) is recorded as “slow”. For the same compound, the “time to steady-state in synovial fluid” value (once daily dosing of naproxen sodium) is given as “within a week”. The “predicted accumulation ratio based on trough concentration” value (synovial fluid, once daily dosing of naproxen sodium) is 2.4.
